Measured values: ChEMBL document CHEMBL4130462, “Natural isoflavone biochanin A as a template for the design of new and potent 3-phenylquinolone efflux inhibitors against Mycobacterium avium” (Eur J Med Chem, 2017)
Values after ≈ are worked out from the molar mass of the structure shown.

How the values were obtained:
Mycobacterium avium [1] = conditions: isolate MAV3
Mycobacterium avium [2] = conditions: isolate MAV2
Mycobacterium avium [3] = conditions: isolate MAV4
Description: Inhibition of multidrug resistance efflux pump in Mycobacterium avium isolate MAV4 assessed as potentiation of clarithromycin -induced antibacterial activity by measuring clarithromycin MIC at 1/2 MIC incubated for 3 days by MTT assay

Mycobacterium avium [4] = conditions: 104
Mycobacterium avium [5] = conditions: isolate MAV1
Mycobacterium avium [6] = conditions: isolate MAV4; remark: listed apart in the source
Mycobacterium avium [7] = conditions: isolate MAV3; remark: listed apart in the source
Mycobacterium avium [8] = conditions: isolate MAV2; remark: listed apart in the source
Description: Inhibition of multidrug resistance efflux pump in Mycobacterium avium isolate MAV2 assessed as potentiation of clarithromycin -induced antibacterial activity by measuring clarithromycin MIC at 1/4 MIC incubated for 3 days by MTT assay (Rvb = >1024 ug/ml)

Mycobacterium avium [9] = conditions: isolate MAV3; remark: listed apart in the source
Mycobacterium avium [10] = conditions: isolate MAV1; remark: listed apart in the source
[11] = tested on: Mycobacterium avium subsp. avium ATCC 25291
Description: Inhibition of multidrug resistance efflux pump in Mycobacterium avium ATCC 25291 assessed as potentiation of clarithromycin -induced antibacterial activity by measuring clarithromycin MIC at 1/4 MIC incubated for 3 days by MTT assay

[12] = tested on: Mycobacterium avium subsp. avium ATCC 25291; remark: listed apart in the source
Description: Inhibition of multidrug resistance efflux pump in Mycobacterium avium ATCC 25291 assessed as potentiation of clarithromycin -induced antibacterial activity by measuring clarithromycin MIC at 1/2 MIC incubated for 3 days by MTT assay

Mycobacterium avium [13] = conditions: 104; remark: listed apart in the source
Mycobacterium avium [14] = conditions: 104 mc'2 4
Mycobacterium avium [15] = conditions: isolate MAV2; remark: listed apart in the source
Description: Inhibition of multidrug resistance efflux pump in Mycobacterium avium isolate MAV2 assessed as potentiation of ofloxacin-induced antibacterial activity by measuring ofloxacin MIC at 1/2 MIC incubated for 3 days by MTT assay

[16] = tested on: Mycobacterium avium subsp. avium ATCC 25291; remark: listed apart in the source
Description: Inhibition of multidrug resistance efflux pump in Mycobacterium avium ATCC 25291 assessed as potentiation of ethidium bromide-induced antibacterial activity by measuring ethidium bromide MIC at 1/4 MIC incubated for 3 days by MTT assay

Mycobacterium avium [17] = conditions: isolate MAV2; remark: listed apart in the source
Mycobacterium avium [18] = conditions: 104; remark: listed apart in the source
Mycobacterium avium [19] = conditions: isolate MAV3; remark: listed apart in the source
Mycobacterium avium [20] = conditions: 104 mc'2 3
Mycobacterium avium [21] = conditions: isolate MAV3; remark: listed apart in the source
Mycobacterium avium [22] = conditions: isolate MAV1; remark: listed apart in the source
Description: Inhibition of multidrug resistance efflux pump in Mycobacterium avium isolate MAV1 assessed as potentiation of ciprofloxacin-induced antibacterial activity by measuring ciprofloxacin MIC at 1/2 MIC incubated for 3 days by MTT assay (Rvb = 2 ug/ml)

Mycobacterium avium [23] = conditions: isolate MAV3; remark: listed apart in the source
Mycobacterium avium [24] = conditions: 104 mc'2 3; remark: listed apart in the source
Mycobacterium avium [25] = conditions: in vivo, 72 h
Description: Antimycobacterial activity against Mycobacterium avium 104 mc'2 4 assessed as reduction in bacterial viability incubated for 3 days by MTT assay

Mycobacterium avium [26] = conditions: isolate MAV3; remark: listed apart in the source
Mycobacterium avium [27] = conditions: isolate MAV2; remark: listed apart in the source
Mycobacterium avium [28] = conditions: 104; remark: listed apart in the source
Mycobacterium avium [29] = conditions: 104 mc'2 3; remark: listed apart in the source
Mycobacterium avium [30] = conditions: 104; remark: listed apart in the source
Mycobacterium avium [31] = conditions: 104 mc'2 3; remark: listed apart in the source
Mycobacterium avium [32] = conditions: 104 mc'2 4; remark: listed apart in the source
Mycobacterium avium [33] = conditions: isolate MAV3; remark: listed apart in the source
Mycobacterium avium [34] = assay: Antimycobacterial activity against Mycobacterium avium isolate MAV3 assessed as reduction in bacterial viability incubated for 3 days by MTT assay; assay type: organism-based; conditions: 72 h
Mycobacterium avium [35] = conditions: 104 mc'2 4; remark: listed apart in the source
Mycobacterium avium [36] = conditions: isolate MAV2; remark: listed apart in the source
Mycobacterium avium [37] = conditions: 104 mc'2 3; remark: listed apart in the source
Mycobacterium avium [38] = conditions: 104; remark: listed apart in the source
[39] = tested on: Mycobacterium avium subsp. avium ATCC 25291; remark: listed apart in the source
Mycobacterium avium [40] = conditions: isolate MAV4; remark: listed apart in the source
[41] = tested on: Mycolicibacterium smegmatis; assay: Antimycobacterial activity against Mycobacterium smegmatis str. MC2 155 assessed as reduction in bacterial viability incubated for 3 days by MTT assay; assay type: organism-based; conditions: 72 h
Mycobacterium avium [42] = conditions: isolate MAV4; remark: listed apart in the source
Mycobacterium avium [43] = conditions: isolate MAV1; remark: listed apart in the source
Mycobacterium avium [44] = conditions: isolate MAV1; remark: listed apart in the source
[45] = tested on: Mycobacterium avium subsp. avium ATCC 25291; remark: listed apart in the source
Mycobacterium avium [46] = conditions: 104; remark: listed apart in the source
Description: Inhibition of multidrug resistance efflux pump in Mycobacterium avium 104 assessed as potentiation of clarithromycin -induced antibacterial activity by measuring clarithromycin MIC at 1/2 MIC incubated for 3 days by MTT assay

Mycobacterium avium [47] = conditions: 104 mc'2 4; remark: listed apart in the source
[48] = Safety index, ratio of CC50 for test compound to CC50 for chlorpromazine for cytotoxicity in human monocyte-derived macrophages; assay type: cell-based, Macrophage cell line
Mycobacterium avium [49] = conditions: isolate MAV3; remark: listed apart in the source
Mycobacterium avium [50] = conditions: isolate MAV1; remark: listed apart in the source
Description: Inhibition of multidrug resistance efflux pump in Mycobacterium avium isolate MAV1 assessed as potentiation of ofloxacin-induced antibacterial activity by measuring ofloxacin MIC at 1/4 MIC incubated for 3 days by MTT assay (Rvb = 4 ug/ml)

Mycobacterium avium [51] = conditions: 104; remark: listed apart in the source
Description: Inhibition of multidrug resistance efflux pump in Mycobacterium avium 104 assessed as potentiation of clarithromycin -induced antibacterial activity by measuring clarithromycin MIC at 1/4 MIC incubated for 3 days by MTT assay

Mycobacterium avium [52] = conditions: 104 mc'2 4; remark: listed apart in the source
Mycobacterium avium [53] = conditions: isolate MAV2; remark: listed apart in the source
Mycobacterium avium [54] = conditions: isolate MAV3; remark: listed apart in the source
[55] = tested on: Mycobacterium avium subsp. avium ATCC 25291; remark: listed apart in the source
Mycobacterium avium [56] = conditions: isolate MAV2; remark: listed apart in the source
Mycobacterium avium [57] = conditions: 104 mc'2 3; remark: listed apart in the source
Mycobacterium avium [58] = conditions: 104 mc'2 3; remark: listed apart in the source
Mycobacterium avium [59] = conditions: 104 mc'2 4; remark: listed apart in the source
Mycobacterium avium [60] = conditions: isolate MAV1; remark: listed apart in the source
Mycobacterium avium [61] = conditions: isolate MAV4; remark: listed apart in the source
Description: Inhibition of multidrug resistance efflux pump in Mycobacterium avium isolate MAV4 assessed as potentiation of clarithromycin -induced antibacterial activity by measuring clarithromycin MIC at 1/4 MIC incubated for 3 days by MTT assay

Mycobacterium avium [62] = conditions: in vivo, 72 h; remark: listed apart in the source
Description: Antimycobacterial activity against Mycobacterium avium 104 mc'2 3 assessed as reduction in bacterial viability incubated for 3 days by MTT assay

Mycobacterium avium [63] = conditions: 104 mc'2 4; remark: listed apart in the source
Mycobacterium avium [64] = conditions: isolate MAV2; remark: listed apart in the source
Mycobacterium avium [65] = conditions: isolate MAV1; remark: listed apart in the source
Description: Inhibition of multidrug resistance efflux pump in Mycobacterium avium isolate MAV1 assessed as potentiation of ciprofloxacin-induced antibacterial activity by measuring ciprofloxacin MIC at 1/4 MIC incubated for 3 days by MTT assay

Mycobacterium avium [66] = conditions: isolate MAV4; remark: listed apart in the source
Mycobacterium avium [67] = assay: Antimycobacterial activity against Mycobacterium avium isolate MAV2 assessed as reduction in bacterial viability incubated for 3 days by MTT assay; assay type: organism-based; conditions: 72 h
[68] = Safety index, ratio of CC50 for test compound to CC50 for thioridazine for cytotoxicity in human monocyte-derived macrophages; assay type: cell-based, Macrophage cell line

CCCOc1ccc(-c2cn(CCN3CCCCC3)c3ccccc3c2=O)cc1
MIC (Mycobacterium avium [1]): 3.12 µg/mL (≈ 8 µM)
MIC (Mycobacterium avium [2]): 512 µg/mL (≈ 1310 µM)
MIC (Mycobacterium avium [3]): < 0.0625 µg/mL
MIC (Mycobacterium avium [4]): < 0.125 µg/mL
MIC (Mycobacterium avium [5]): < 4 µg/mL
MIC (Mycobacterium avium [6]): 4 µg/mL (≈ 10.2 µM)
MIC (Mycobacterium avium [7]): 0.5 µg/mL (≈ 1.28 µM)
MIC (Mycobacterium avium [8]): 512 µg/mL (≈ 1310 µM)
MIC (Mycobacterium avium [9]): 16 µg/mL (≈ 41 µM)
MIC (Mycobacterium avium [10]): 1.56 µg/mL (≈ 3.99 µM)
MIC [11]: 4 µg/mL (≈ 10.2 µM)
MIC [12]: < 0.0625 µg/mL
MIC (Mycobacterium avium [13]): < 0.125 µg/mL
MIC (Mycobacterium avium [14]): < 4 µg/mL
MIC (Mycobacterium avium [15]): 2 µg/mL (≈ 5.12 µM)
MIC [16]: 12.5 µg/mL (≈ 32 µM)
MIC (Mycobacterium avium [17]): 1 µg/mL (≈ 2.56 µM)
MIC (Mycobacterium avium [18]): < 0.125 µg/mL
MIC (Mycobacterium avium [19]): 64 µg/mL (≈ 164 µM)
MIC (Mycobacterium avium [20]): 512 µg/mL (≈ 1310 µM)
MIC (Mycobacterium avium [21]): < 4 µg/mL
MIC (Mycobacterium avium [22]): < 0.031 µg/mL
MIC (Mycobacterium avium [23]): 2 µg/mL (≈ 5.12 µM)
MIC (Mycobacterium avium [24]): 8 µg/mL (≈ 20.5 µM)
MIC (Mycobacterium avium [25]): 256 µg/mL (≈ 656 µM)
MIC (Mycobacterium avium [26]): 4 µg/mL (≈ 10.2 µM)
MIC (Mycobacterium avium [27]): 512 µg/mL (≈ 1310 µM)
MIC (Mycobacterium avium [28]): < 0.125 µg/mL
MIC (Mycobacterium avium [29]): < 4 µg/mL
MIC (Mycobacterium avium [30]): < 0.125 µg/mL
MIC (Mycobacterium avium [31]): 3.12 µg/mL (≈ 8 µM)
MIC (Mycobacterium avium [32]): 128 µg/mL (≈ 328 µM)
MIC (Mycobacterium avium [33]): 2 µg/mL (≈ 5.12 µM)
MIC (Mycobacterium avium [34]): 128 µg/mL (≈ 328 µM)
MIC (Mycobacterium avium [35]): < 4 µg/mL
MIC (Mycobacterium avium [36]): 3.12 µg/mL (≈ 8 µM)
MIC (Mycobacterium avium [37]): 128 µg/mL (≈ 328 µM)
MIC (Mycobacterium avium [38]): < 0.125 µg/mL
MIC [39]: 32 µg/mL (≈ 81.9 µM)
MIC (Mycobacterium avium [40]): 2 µg/mL (≈ 5.12 µM)
MIC [41]: 256 µg/mL (≈ 656 µM)
MIC (Mycobacterium avium [42]): < 0.39 µg/mL
MIC (Mycobacterium avium [43]): < 0.125 µg/mL
MIC (Mycobacterium avium [44]): < 0.195 µg/mL
MIC [45]: < 0.5 µg/mL
MIC (Mycobacterium avium [46]): < 0.125 µg/mL
MIC (Mycobacterium avium [47]): < 0.125 µg/mL
selectivity ratio [48]: 2 to 4
MIC (Mycobacterium avium [49]): 8 µg/mL (≈ 20.5 µM)
MIC (Mycobacterium avium [50]): 1 µg/mL (≈ 2.56 µM)
MIC (Mycobacterium avium [51]): < 0.125 µg/mL
MIC (Mycobacterium avium [52]): 2 µg/mL (≈ 5.12 µM)
MIC (Mycobacterium avium [53]): 1 µg/mL (≈ 2.56 µM)
MIC (Mycobacterium avium [54]): 32 µg/mL (≈ 81.9 µM)
MIC [55]: < 1 µg/mL
MIC (Mycobacterium avium [56]): 256 µg/mL (≈ 656 µM)
MIC (Mycobacterium avium [57]): < 4 µg/mL
MIC (Mycobacterium avium [58]): < 0.125 µg/mL
MIC (Mycobacterium avium [59]): 128 µg/mL (≈ 328 µM)
MIC (Mycobacterium avium [60]): < 4 µg/mL
MIC (Mycobacterium avium [61]): 1 µg/mL (≈ 2.56 µM)
MIC (Mycobacterium avium [62]): 256 µg/mL (≈ 656 µM)
MIC (Mycobacterium avium [63]): < 0.195 µg/mL
MIC (Mycobacterium avium [64]): 6.25 µg/mL (≈ 16 µM)
MIC (Mycobacterium avium [65]): 2 µg/mL (≈ 5.12 µM)
MIC (Mycobacterium avium [66]): 8 µg/mL (≈ 20.5 µM)
MIC (Mycobacterium avium [67]): 256 µg/mL (≈ 656 µM)
selectivity ratio [68]: 4 to 6
